Test results published in patent US10081660B2, “Polynucleotide, polypeptide with immunosuppressive activity, expression cassette, expression vector, host cell, pharmaceutical composition, methods for producing a polypeptide with immunosuppressive activity and for preventing or treating conditions that require immunosuppression, and use of a …” (FUNDAÇÃO BUTANTAN, priority 2013, dated 2018).
Ends that are not written are not given here.

B1: recombinant polypeptide: SEQ ID NO: 2 plus six histidine residues, T7 phage protein 10 portion and enterokinase site; approximately 30 kDa, expressed in E. coli (protein)
chain: MRGSHHHHHHGMASMTGGQQMGRDLYDDDDKDRWGSELFSQKYIELVVVADHGMFTKYNGNLNTIRTRVHEIVNTLNGFYRSLNIHISLTDLEIWSNQDLINVQSAAADTLKTFGEWRERVLLNRISHDNAQLLTAIDLADNTIGIAYTGGMCYPKNSVGIVQDHSPKTLLIAVTMAHELGHNLGMKHDENHCHCSASFCIMPPSLSEGPSYEFSDCSKDYYEMFLTKRKPQCILNKPWYHGIRSLIRLLTKPERKLSWLLPPLSNN

Legend:
HIII mice = assay: Immunosuppressive activity against soluble antigen (human gamma globulin, HGG), anti-HGG antibodies by ELISA; assay type: in vivo; settings: for suppression of anti-HGG antibody production: single 3 μg dose intraperitoneally, HGG on Al(OH)3 after 24 hours
Procedure: The immunosuppressive activity can also be evaluated against a soluble antigen, such as human gamma globulin (HGG), adsorbed in aluminum hydroxide, and the antibodies titer determined by ELISA.
Titers were determined by ELISA and calculated considering the highest dilution of experimental sera whose O.D. (optical density) was five times higher than those obtained for normal serum at the same dilution.
The immunosuppressive activity of the synthetic polypeptide P2 (SEQ ID NO: 5) and P6 (SEQ ID NO: 9) was evaluated against HGG, taking into account immunosuppression time after preventive treatment and antigen inoculation. In all protocols, animals received a single dose of the tested polypeptides. In this experiment, the HIII mice (5 animals/group) were treated intraperitoneally with 3 μg of P6 or 3 μg of P2, and after 24 hours, were immunized intraperitoneally with HGG adsorbed on Al(OH)3 (10 μg/animal); The untreated group was used as a positive control receiving only HGG. […] The negative control was represented by a group called normal serum, i.e., serum from untreated and non-immunized animals. O.D. values obtained from the 1:500 dilution were presented herein as average+standard deviation and were statistically analyzed by Student t test. Values were considered significant when p<0.0001 (***); p<0.005 (**); p<0.05 (*) compared to the positive control, i.e., animals immunized only with HGG. Thus, the HIII mice groups received polypeptides SEQ ID NO: 22, P2 and P6.

Lineage HIII mice [1] = assay: Immunogenicity analysis: anti-polypeptide antibodies by ELISA after immunization; assay type: in vivo; settings: intraperitoneal, bleeding seven days after immunization
Procedure: The immunogenicity is the capacity of a substance to induce an immune response. To evaluate the immunogenic potential of this invention's polypeptides, the antibody production is determined by the dosage of antibodies titer by ELISA after administration of the present invention polypeptides in potent adjuvants.
Anti-recombinant polypeptide antibodies were measured by ELISA. […] The reactions were developed by the addition of anti-mice-IgG conjugated to peroxidase (1: 7,500), followed by addition of OPD (o-Phenylenediamine dihydrochloride) and H2O2. The reading of the reactions was performed at λ492 nm on a plate spectrophotometer. The titer was established as the highest dilution of experimental sera which optical densities were three times higher than those obtained for normal serum at the same dilution. The data correspond to values obtained from two independent experiments. The significance between different groups (6 animals/group) was p<0.01.
One group was used as a positive control, receiving human gamma globulin (HGG). Bleeding was performed seven days after immunization and antibody production was assessed by ELISA.

[2] = tested on: FRET substrate Abz-FRSSRQ EDDnp; assay: Proteolytic activity on extinguished fluorescence (FRET) substrate, spectrofluorometer; assay type: biochemical; settings: 10 μg of polypeptide, fluorescence monitored for 1 hour
human fibrinogen = biological target: T1, human fibrinogen (Homo sapiens, UniProt P02671+P02675+P02679); assay: Fibrinogenolytic assay (SDS-PAGE); assay type: biochemical; settings: 30 μg human fibrinogen, 5 μg polypeptide, 37° C. for 5 hours; whole L. muta venom as positive control
T1 sequence (P02671 20-629 limits assumed): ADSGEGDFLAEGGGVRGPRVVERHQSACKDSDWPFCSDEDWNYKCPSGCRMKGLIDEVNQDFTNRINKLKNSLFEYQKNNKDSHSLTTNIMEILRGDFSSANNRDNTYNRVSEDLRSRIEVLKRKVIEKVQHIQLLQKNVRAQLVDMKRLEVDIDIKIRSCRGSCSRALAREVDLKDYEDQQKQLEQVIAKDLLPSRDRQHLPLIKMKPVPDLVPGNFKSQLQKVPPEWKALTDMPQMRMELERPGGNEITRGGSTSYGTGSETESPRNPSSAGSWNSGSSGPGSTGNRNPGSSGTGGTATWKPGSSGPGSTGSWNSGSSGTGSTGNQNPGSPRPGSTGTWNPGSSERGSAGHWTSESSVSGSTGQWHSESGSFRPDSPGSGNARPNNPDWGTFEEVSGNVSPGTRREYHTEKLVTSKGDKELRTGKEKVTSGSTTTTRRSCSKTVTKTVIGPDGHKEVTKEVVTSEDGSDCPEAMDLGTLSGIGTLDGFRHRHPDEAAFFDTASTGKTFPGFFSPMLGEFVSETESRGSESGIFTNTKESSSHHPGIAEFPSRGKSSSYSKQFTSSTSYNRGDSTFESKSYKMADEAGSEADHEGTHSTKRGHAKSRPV
T1 sequence (P02675 31-491): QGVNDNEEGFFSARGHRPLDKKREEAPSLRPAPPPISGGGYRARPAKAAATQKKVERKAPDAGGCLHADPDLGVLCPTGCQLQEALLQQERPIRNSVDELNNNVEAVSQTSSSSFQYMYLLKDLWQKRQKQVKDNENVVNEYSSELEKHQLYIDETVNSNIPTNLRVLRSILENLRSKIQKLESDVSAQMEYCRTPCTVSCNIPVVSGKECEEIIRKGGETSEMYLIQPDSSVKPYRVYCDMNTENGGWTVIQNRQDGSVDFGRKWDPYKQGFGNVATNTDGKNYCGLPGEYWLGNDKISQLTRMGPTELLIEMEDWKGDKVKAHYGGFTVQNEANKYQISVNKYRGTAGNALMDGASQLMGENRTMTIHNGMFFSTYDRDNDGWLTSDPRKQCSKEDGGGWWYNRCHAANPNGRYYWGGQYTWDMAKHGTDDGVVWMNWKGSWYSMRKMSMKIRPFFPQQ
T1 sequence (P02679 27-433 limits assumed): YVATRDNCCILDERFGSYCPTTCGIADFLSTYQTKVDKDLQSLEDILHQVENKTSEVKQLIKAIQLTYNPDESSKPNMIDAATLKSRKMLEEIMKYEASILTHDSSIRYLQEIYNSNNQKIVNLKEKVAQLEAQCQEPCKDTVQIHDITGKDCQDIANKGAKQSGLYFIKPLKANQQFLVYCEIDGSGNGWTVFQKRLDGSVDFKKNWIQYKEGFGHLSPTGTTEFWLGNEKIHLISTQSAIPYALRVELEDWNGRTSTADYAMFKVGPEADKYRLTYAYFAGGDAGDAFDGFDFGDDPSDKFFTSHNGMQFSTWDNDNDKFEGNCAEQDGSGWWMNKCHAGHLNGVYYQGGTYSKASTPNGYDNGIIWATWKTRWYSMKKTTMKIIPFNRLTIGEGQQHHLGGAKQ
Procedure: (§1) Another possibility would be the verification of hydrolysis capacity in known substrates. The proteolytic enzymes of viperidae venoms have, for example, the capacity to hydrolyze the fibrinogen and the C3 component of the human complement system, and verifying this effect is a way of inquiring about the proteolytic activity.
To confirm the absence of enzymatic activity, one experiment was carried out a fibrinogenolytic assay. […] The samples were subjected to SDS-PAGE (10%) analysis under reducing conditions and the gel was stained with Coomassie blue.

[3] = biological target: C3 component of human complement system (Homo sapiens, UniProt P01024); assay: Cleavage of C3 component (SDS-PAGE); assay type: biochemical; settings: 9 μg human C3, 5 μg polypeptide, 37° C. for 5 hours
From the text: as §1
According to the caption on FIG. 14: (A) Human C3; (B) Human C3+venom; (C) Human C3+polypeptide. The samples were subjected to SDS-PAGE (10%) analysis under reducing conditions and the gel was stained with Coomassie blue.

BALB/c mice = assay: Hemorrhagic activity, method of Kondo et al., intradermal injection; assay type: in vivo; settings: 4 mg L. muta venom or 50 mg recombinant polypeptide, skin assessed after 2 hours
Procedure: (1960, Jpn. J. Med. Sci. Biol. 13: 43-52).
After 2 hours, the animals were euthanized and the skin removed to assess the presence of hemorrhage.

Lineage HIII mice [4] = assay: Immunosuppressive activity against particulate antigen (sheep erythrocytes), hemagglutination; assay type: in vivo; settings: 50 μg intraperitoneally 72 hours before immunization with sheep erythrocytes, […] cells/animal
Procedure: For the invention's polypeptide immunosuppressive activity analysis, Lineage HIII mice constitutively known as good responder to of antibody production are inoculated, intraperitoneally, and immunized with structurally complex and highly immunogenic antigens, such as sheep erythrocytes, a particulate antigen. The animals' serum is then analyzed regarding its hemagglutination activity: the lower is the hemagglutinating effect; the higher is the immunosuppressive capacity of the evaluated compound. The immunosuppressive activity can also be evaluated against a soluble antigen, such as human gamma globulin (HGG), adsorbed in aluminum hydroxide, and the antibodies titer determined by ELISA.
An untreated group was used as positive control and received only E^S. Samples of 50 μL E^S (2% v/v) were incubated with 50 μL of the sera from immunized animals (serially diluted) in 96 U-bottom well plates for 8 hours at room temperature. As negative control, E^S were incubated with PBS only. Antibody titers were that ones whose higher serum dilutions promoted agglutination of erythrocytes. The data are representative of three independent experiments. The significance between different groups was p<0.01 (FIG. 16).

Sequence of C3 component of human complement system (P01024 23-1663): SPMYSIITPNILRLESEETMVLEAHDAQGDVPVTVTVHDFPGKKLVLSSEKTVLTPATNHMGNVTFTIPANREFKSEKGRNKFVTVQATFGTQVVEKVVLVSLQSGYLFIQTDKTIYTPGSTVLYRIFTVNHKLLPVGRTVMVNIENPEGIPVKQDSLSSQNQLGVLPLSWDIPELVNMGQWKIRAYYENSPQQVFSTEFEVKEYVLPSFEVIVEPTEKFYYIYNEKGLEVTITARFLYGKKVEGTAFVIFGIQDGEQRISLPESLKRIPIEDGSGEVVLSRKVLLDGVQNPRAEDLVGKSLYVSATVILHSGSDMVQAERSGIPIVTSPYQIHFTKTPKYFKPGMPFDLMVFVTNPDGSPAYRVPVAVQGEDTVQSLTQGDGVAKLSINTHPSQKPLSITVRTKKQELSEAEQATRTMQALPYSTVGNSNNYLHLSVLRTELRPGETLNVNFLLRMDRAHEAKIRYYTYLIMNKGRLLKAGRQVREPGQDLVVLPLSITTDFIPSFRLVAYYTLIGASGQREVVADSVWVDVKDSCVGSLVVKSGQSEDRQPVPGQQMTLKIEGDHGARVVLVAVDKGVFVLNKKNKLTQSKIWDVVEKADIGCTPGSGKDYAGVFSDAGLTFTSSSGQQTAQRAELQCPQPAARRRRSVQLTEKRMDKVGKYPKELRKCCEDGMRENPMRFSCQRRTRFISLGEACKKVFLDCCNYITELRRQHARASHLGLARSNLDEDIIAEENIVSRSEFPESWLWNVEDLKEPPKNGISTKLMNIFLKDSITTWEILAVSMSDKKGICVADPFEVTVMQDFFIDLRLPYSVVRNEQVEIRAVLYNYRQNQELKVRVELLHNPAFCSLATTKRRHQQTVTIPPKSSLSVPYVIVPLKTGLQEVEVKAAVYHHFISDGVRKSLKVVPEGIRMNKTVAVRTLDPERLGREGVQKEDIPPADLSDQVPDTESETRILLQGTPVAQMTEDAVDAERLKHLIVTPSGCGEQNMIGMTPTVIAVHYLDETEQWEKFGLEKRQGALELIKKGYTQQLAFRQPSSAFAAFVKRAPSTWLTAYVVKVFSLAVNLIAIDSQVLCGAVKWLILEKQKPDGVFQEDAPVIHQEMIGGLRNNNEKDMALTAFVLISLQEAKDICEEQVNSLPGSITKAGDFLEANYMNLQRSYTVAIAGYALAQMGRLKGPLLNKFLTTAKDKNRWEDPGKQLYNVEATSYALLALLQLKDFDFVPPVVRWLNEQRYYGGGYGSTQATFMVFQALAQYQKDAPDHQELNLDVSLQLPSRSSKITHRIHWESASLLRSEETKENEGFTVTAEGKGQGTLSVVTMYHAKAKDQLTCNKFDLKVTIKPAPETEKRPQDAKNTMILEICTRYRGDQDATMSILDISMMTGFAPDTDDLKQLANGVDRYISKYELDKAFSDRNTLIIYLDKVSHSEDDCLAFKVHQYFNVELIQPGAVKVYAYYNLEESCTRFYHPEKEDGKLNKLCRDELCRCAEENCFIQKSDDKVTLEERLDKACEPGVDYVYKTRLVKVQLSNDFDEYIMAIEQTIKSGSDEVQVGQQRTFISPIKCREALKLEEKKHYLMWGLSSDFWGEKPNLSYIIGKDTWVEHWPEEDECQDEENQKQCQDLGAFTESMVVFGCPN

| Molecule | suppression of anti-HGG antibody production (HIII mice; after 7 days) | suppression of anti-HGG antibody production (HIII mice; after 13 days) | suppression of anti-HGG antibody production (HIII mice; after 36 days) | immunogenicity (production of antibodies against P6) (Lineage HIII mice [1]; P6 (3 mg)) | inhibition of anti-HGG antibody production (HIII mice; P6 3 μg/animal or recombinant polypeptide 50 μg/animal, HGG in Al(OH)3 after 24 hours) | proteolytic activity on the FRET substrate [2] | hydrolysis of fibrinogen (human fibrinogen) | cleavage of C3 component [3] | hemorrhagic activity (BALB/c mice) | immunogenic potential (production of specific anti-recombinant polypeptide antibodies) (Lineage HIII mice [1]; 50 μg) | hemagglutination by serum of treated animals (antibody response to sheep erythrocytes) (Lineage HIII mice [4]) |
| --- | --- | --- | --- | --- | --- | --- | --- | --- | --- | --- | --- |
| AIDLADNTIGIAYTGG [P2] | suppression of anti-HGG antibody production was induced | suppression of anti-HGG antibody production was induced | suppression of anti-HGG antibody production was induced | – | – | – | – | – | – | – | – |
| NAQLLTAID [P6] | suppression of anti-HGG antibody production was induced | suppression of anti-HGG antibody production was induced | suppression of anti-HGG antibody production was induced | did not show immunogenicity | inhibition of anti-HGG antibody production | – | – | – | – | – | – |
| B1 | – | – | – | – | – | absence of recombinant polypeptide proteolytic activity | not able to hydrolyze fibrinogen | unable to cleave the C3 component | no hemorrhagic activity | very low or no immunogenic potential | unable to promote hemagglutination |
